Experimental data from patent US20070203112A1, “BLADDER CANCER TREATMENT AND METHODS” (priority 2006, published 2007).

Test system: DLD-1 multicell layers
Assay: Penetration of EO9 through DLD-1 multicell layers (transwell apparatus, HPLC)
Format: in vitro ADME, human
Experimental: The cell line used in this study was DLD-1 human colon adenocarcinoma cells which was selected because of its ability to form tight junctions between cells thereby forming a continuous ‘barrier’ across which the drug must cross. To assess drug penetration, drugs were added to the top chamber and the concentration of drug in the bottom chamber was determined over a range of time intervals.
DLD-1 cells (2.5×10^5 in 200 μl of medium) were added to the top chamber and allowed to settle and attach to the membrane for approximately 3 hours at 37° C. in a CO2 enriched (5%) atmosphere. Once cells attached, the transwell was inserted into one well of a 24 well plate and 600 μl media was added to the bottom chamber. The apparatus was then incubated at 37° C. for 4 days with daily media changes to both the upper and lower chamber. […] For each assay, 3 transwells were removed for histological examination and accurate determination of thickness and integrity (see below for details).
Throughout all procedures, the media used was as described above except for the fact that phenol red free media was used (phenol red elutes very close to EO9 on the chromatograms). EO9 was added to the top chamber at t=0 in a volume of 100 μl and the bottom chamber contained 600 μl of media (constantly stirred). […]

Cn1c(/C=C/CO)c(CO)c2c1C(=O)C=C(N1CC1)C2=O [EO9, 3-hydroxymethyl-5-aziridinyl-1-methyl-2-(1H-indole-4,7-dione)-propenol]
multicell layer penetration rate of EO9 (as the concentration of PG increases, 347 μM in top chamber, 10 minute intervals over 1 hour): decreases | metabolites or breakdown products observed (at any of the evaluated time points of the penetration experiment): No obvious metabolites or breakdown products were observed
